pIC50: −log10 of the molar value.
These compounds were tested against T1, human Edg-1 (S1P1) (Homo sapiens, UniProt P21453) (assay: S1P1 binding assay: inhibition of [33P]-S1P binding to membrane fraction of HEK-293 cells transferred with the human Edg-1 (S1P1) gene). Conditions: [33P]-S1P 0.1 nM, human Edg-1 (S1P1) HEK-293 membrane fraction, 1 h at 30° C.; read-out: IC50 (concentration at which binding in the absence of the test compound was inhibited by 50%).
T1 construct: expressed in transfected cells; host or cells: HEK-293
Protocol: The membrane fraction was obtained by treating the cells with a solubilizing buffer (1 mM Tris/HCl, pH 7.2) for 10 minutes on ice, centrifuging at 1000×g for 5 minutes to remove insoluble fractions, and then centrifuging at 40000×g for 30 minutes at 4° C. The resulting membrane fraction was dissolved in a binding buffer (20 mM Tris-HCl, pH 7.4, 100 mM NaCl, 15 mM NaF, 2 mM deoxypyridoxine, 4 mg/mL fatty acid-free BSA), and then [^33P]-S1P (manufactured by ARC, final concentration 0.1 nM) and a DMSO solution (final concentration of the compound 10^−5M, final concentration of DMSO 0.1%) of the test compound were added. Thereafter, the mixture was stirred and then treated for one hour at 30° C. Using a harvester, the membrane fraction was harvested onto unifilter-96 GF/C filter (manufactured by Perkin Elmer), washing was carried out four times with the binding buffer, and the filter was dried. Twenty five μL Microscint 0 (manufactured by Perkin Elmer) was added, and radioactivity was measured using Top Count NXT (manufactured by Packard) to calculate the amount (A) of [^33P]-S1P bound to the membrane fraction at the time when the compound was added.
The same procedure was carried out in the absence of the test compound, and the amount (B) of [^33P]-S1P bound was calculated. Further, the same procedure was carried out in the absence of the test compound by use of HEK-293 cells to which no Edg-1 (S1P1) gene was introduced, and the background amount (C) of [^33P]-S1P bound was calculated.
Inhibition rate (%)=[1−(A−C)/(B−C)]×100
Further, concentrations (IC50) at the time when binding in the absence of the test compound was inhibited by 50% were calculated. The membrane system binding assay was carried out in the presence of test compounds with various concentrations, and the Edg-1 (S1P1) binding inhibition rates were calculated using the equation above. Then, IC50 values were calculated using Origin (Lightstone Corp.), a software for data analysis.

T1 sequence (P21453 whole entry): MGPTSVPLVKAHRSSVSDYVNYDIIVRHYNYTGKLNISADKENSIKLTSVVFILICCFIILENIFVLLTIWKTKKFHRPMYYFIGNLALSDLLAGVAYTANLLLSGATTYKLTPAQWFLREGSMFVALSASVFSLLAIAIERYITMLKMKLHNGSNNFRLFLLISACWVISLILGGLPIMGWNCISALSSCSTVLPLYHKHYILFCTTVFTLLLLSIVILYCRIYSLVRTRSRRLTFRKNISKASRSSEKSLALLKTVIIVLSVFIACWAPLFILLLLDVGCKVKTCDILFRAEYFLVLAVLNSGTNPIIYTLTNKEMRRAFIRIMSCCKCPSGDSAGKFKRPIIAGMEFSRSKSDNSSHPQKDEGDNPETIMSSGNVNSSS

SMILES | pIC50
CCn1c(Oc2cccc(N3CCN(C)CC3)c2)nnc1[C@@H](C)NS(=O)(=O)c1ccc(Cl)c(Cl)c1 [Compound 45, 3,4-Dichloro-N-((R)-1-[4-ethyl-5-[3-(4-methyl-piperazin-1-yl)-phenoxy]-4H-[1,2,4]triazol-3-yl]-ethyl)-benzenesulfonamide] | 8.38
CCn1c(Nc2ccc(C)cc2)nnc1[C@@H](C)NS(=O)(=O)c1ccc(Cl)c(Cl)c1 [Compound 61, N-[(1R)-1-(4-Ethyl-5(4-methylphenylamino)-4H-[1,2,4]triazol-3-yl)ethyl]3,4-dichlorobenzenesulfonamide] | 7.41
CCn1c(Oc2cccc(N3CCC4(CC3)OCCO4)c2)nnc1[C@@H](C)NS(=O)(=O)c1ccc(Cl)c(Cl)c1 [Compound 87, 3,4-Dichloro-N-((R)-1-[5-[3-(1,4-dioxa-8-aza-spiro[4.5]decan-8-yl)-phenoxy]-4-ethyl-4H-[1,2,4]triazol-3-yl]-ethyl)-benzenesulfonamide] | ≥ 8.00
CCn1c(Oc2cccc(N3CCC(=O)CC3)c2)nnc1[C@@H](C)NS(=O)(=O)c1ccc(Cl)c(Cl)c1 [Compound 88, 3,4-Dichloro-N-((R)-1-[4-ethyl-5-[3-(4-oxo-piperidin-1-yl)-phenoxy]-4H-[1,2,4]triazol-3-yl]-ethyl)-benzenesulfonamide] | 8.27
CCn1c(Oc2cccc(N(CCOC)CCOC)c2)nnc1[C@@H](C)NS(=O)(=O)c1ccc(Cl)c(Cl)c1 [Compound 100] | 7.73
CCn1c(Oc2ccc3cc[nH]c3c2)nnc1[C@@H](C)NS(=O)(=O)c1ccc2c(Cl)cccc2c1 [Compound 151] | ≥ 8.00

Same assay, conditions: test compound at 10 μM; inhibition of [33P]-S1P binding to the membrane fraction of HEK-293 cells expressing human Edg-1 (S1P1)

SMILES | inhibition at 10 µM [%]
CCn1c(Oc2cccc(N3CCN(C)CC3)c2)nnc1[C@@H](C)NS(=O)(=O)c1ccc(Cl)c(Cl)c1 [Compound 45, 3,4-Dichloro-N-((R)-1-[4-ethyl-5-[3-(4-methyl-piperazin-1-yl)-phenoxy]-4H-[1,2,4]triazol-3-yl]-ethyl)-benzenesulfonamide] | 106
CCn1c(Sc2ccc(C)cc2)nnc1[C@@H](C)NS(=O)(=O)c1ccc(Cl)c(Cl)c1 [Compound 55, 3,4-Dichloro-N-[(R)-1-(4-ethyl-5(4-methylbenzenesulfanyl)-4H-[1,2,4]triazol-3-yl)-ethyl]-benzenesulfonamide] | 80.6
CCn1c(Cc2ccc(C)cc2)nnc1[C@@H](C)NS(=O)(=O)c1ccc(Cl)c(Cl)c1 [Compound 56, 3,4-Dichloro-N-[(R)-1-[4-ethyl-5(4-methylbenzyl)-4H-[1,2,4]triazol-3-yl]-ethyl]-benzenesulfonamide] | 88.3
CCn1c(Nc2ccc(C)cc2)nnc1[C@@H](C)NS(=O)(=O)c1ccc(Cl)c(Cl)c1 [Compound 61, N-[(1R)-1-(4-Ethyl-5(4-methylphenylamino)-4H-[1,2,4]triazol-3-yl)ethyl]3,4-dichlorobenzenesulfonamide] | 102
CCn1c(Oc2cccc(N3CCC4(CC3)OCCO4)c2)nnc1[C@@H](C)NS(=O)(=O)c1ccc(Cl)c(Cl)c1 [Compound 87, 3,4-Dichloro-N-((R)-1-[5-[3-(1,4-dioxa-8-aza-spiro[4.5]decan-8-yl)-phenoxy]-4-ethyl-4H-[1,2,4]triazol-3-yl]-ethyl)-benzenesulfonamide] | 99.9
CCn1c(Oc2cccc(N3CCC(=O)CC3)c2)nnc1[C@@H](C)NS(=O)(=O)c1ccc(Cl)c(Cl)c1 [Compound 88, 3,4-Dichloro-N-((R)-1-[4-ethyl-5-[3-(4-oxo-piperidin-1-yl)-phenoxy]-4H-[1,2,4]triazol-3-yl]-ethyl)-benzenesulfonamide] | 99.5
CCn1c(Oc2cccc(N(CCOC)CCOC)c2)nnc1[C@@H](C)NS(=O)(=O)c1ccc(Cl)c(Cl)c1 [Compound 100] | 110
CCn1c(Oc2ccc(F)cc2)nnc1[C@@H](C)N(C)S(=O)(=O)c1ccc(Cl)c(Cl)c1 [Compound 115, 3,4-Dichloro-N-[(R)-1-[4-ethyl-5-(4-fluorophenoxy)-4H-[1,2,4]triazol-3-yl]-ethyl]-N-methyl-benzenesulfonamide] | 81.8
CCn1c(Oc2ccc(F)cc2)nnc1[C@@H](C)NS(=O)(=O)c1ccc(C)c(Cl)c1 [Compound 127] | 94.4
CCn1c(Oc2ccc(F)cc2)nnc1[C@@H](C)NS(=O)(=O)c1ccc(C(C)=O)cc1 [Compound 154] | 92.3
CCn1c(Oc2ccc(F)cc2)nnc1[C@@H](C)NS(=O)(=O)c1ccccc1 [Compound 155] | 59.9
CCn1c(Oc2ccc(F)cc2)nnc1[C@@H](C)NS(=O)(=O)c1ccc(Br)cc1 [Compound 156] | 107
CCn1c(Oc2ccc(F)cc2)nnc1[C@@H](C)NS(=O)(=O)c1ccc(C(C)(C)C)cc1 [Compound 157] | 74.6
CCn1c(Oc2ccc(F)cc2)nnc1[C@@H](C)NS(=O)(=O)c1cccc(Br)c1 [Compound 160] | 96.9
CCn1c(Oc2ccc(F)cc2)nnc1[C@@H](C)NS(=O)(=O)c1ccc(Cl)cc1 [Compound 162] | 109
CCn1c(Oc2ccc(F)cc2)nnc1[C@@H](C)NS(=O)(=O)c1cccc(C#N)c1 [Compound 165] | 72.9
CCn1c(Oc2ccc(F)cc2)nnc1[C@@H](C)NS(=O)(=O)c1cc(C)c(Cl)cc1C [Compound 167] | 113
CCn1c(Oc2ccc(F)cc2)nnc1[C@@H](C)NS(=O)(=O)c1cc(Cl)ccc1Cl [Compound 168] | 68.4
CCn1c(Oc2ccc(F)cc2)nnc1[C@@H](C)NS(=O)(=O)c1ccc(OC)c(OC)c1 [Compound 170] | 76
CCc1ccc(S(=O)(=O)N[C@H](C)c2nnc(Oc3ccc(F)cc3)n2CC)cc1 [Compound 172] | 92
CCn1c(Oc2ccc(F)cc2)nnc1[C@@H](C)NS(=O)(=O)c1ccc(F)cc1 [Compound 173] | 97.2
CCn1c(Oc2ccc(F)cc2)nnc1C(C)(C)NS(=O)(=O)c1c(C)cc(C)cc1C [Compound 174] | 52.5
CCn1c(Oc2ccc(F)cc2)nnc1[C@@H](C)NS(=O)(=O)c1ccc(OC)cc1 [Compound 175, N-[(R)-1-[4-Ethyl-5-(4-fluorophenoxy)-4H-[1,2,4]triazol-3-yl]-ethyl]-4-methoxybenzenesulfonamide] | 103
CCn1c(Oc2ccc(F)cc2)nnc1[C@@H](C)NS(=O)(=O)c1ccc(S(C)(=O)=O)cc1 [Compound 177] | 55.3
CCn1c(Oc2ccc(F)cc2)nnc1[C@@H](C)NS(=O)(=O)c1cccc2ccccc12 [Compound 179] | 83

SMILES | inhibition at 10 µM [%]
CCn1c(Oc2ccc(F)cc2)nnc1[C@@H](C)NS(=O)(=O)CCc1cccc2ccccc12 [Compound 180] | 94.6
CCn1c(Oc2ccc(F)cc2)nnc1[C@@H](C)NS(=O)(=O)c1c(F)c(F)c(F)c(F)c1F [Compound 181] | 50.4
CCn1c(Oc2ccc(F)cc2)nnc1[C@@H](C)NS(=O)(=O)c1ccc(I)cc1 [Compound 182] | 109
CCn1c(Oc2ccc(F)cc2)nnc1[C@@H](C)NS(=O)(=O)/C=C/c1ccccc1 [Compound 183] | 92.8
CCn1c(Oc2ccc(F)cc2)nnc1[C@@H](C)NS(=O)(=O)c1cc(Cl)c(Cl)cc1Cl [Compound 184] | 97.3
CCn1c(Oc2ccc(F)cc2)nnc1[C@@H](C)NS(=O)(=O)c1ccc(C)cc1 [Compound 186] | 86.8
CCn1c(Oc2ccc(F)cc2)nnc1[C@@H](C)NS(=O)(=O)c1cccc(C(F)(F)F)c1 [Compound 188] | 107
CCn1c(Oc2ccc(F)cc2)nnc1[C@@H](C)NS(=O)(=O)c1ccccc1C [Compound 189] | 99.7
CCn1c(Oc2ccc(F)cc2)nnc1[C@@H](C)NS(=O)(=O)c1ccc(OC(F)(F)F)cc1 [Compound 190] | 87.9
C=Cc1ccc(S(=O)(=O)N[C@H](C)c2nnc(Oc3ccc(F)cc3)n2CC)cc1 [Compound 191] | 96.9
CCn1c(Oc2ccc(F)cc2)nnc1[C@@H](C)NS(=O)(=O)c1cccc(C)c1 [Compound 192] | 95.2
CCn1c(Oc2ccc(F)cc2)nnc1[C@@H](C)NS(=O)(=O)c1ccc2c(c1)CN(C(=O)C(F)(F)F)CC2 [Compound 194] | 80.7
CCn1c(Oc2ccc(F)cc2)nnc1[C@@H](C)NS(=O)(=O)c1cc(C)ccc1C [Compound 195] | 90.1
CCn1c(Oc2ccc(F)cc2)nnc1[C@@H](C)NS(=O)(=O)c1ccc(-c2csnn2)s1 [Compound 196] | 65.6
CCn1c(Oc2ccc(F)cc2)nnc1[C@@H](C)NS(=O)(=O)c1ccc(C(=O)OC)n1C [Compound 201] | 84.3
CCCc1ccc(S(=O)(=O)N[C@H](C)c2nnc(Oc3ccc(F)cc3)n2CC)cc1 [Compound 206] | 85.4
CCn1c(Oc2ccc(F)cc2)nnc1[C@@H](C)NS(=O)(=O)c1ccc(Cl)c(Cl)c1Cl [Compound 207] | 108
CCn1c(Oc2ccc(F)cc2)nnc1C(C)(C)NS(=O)(=O)c1c(C)c(C)cc(C)c1C [Compound 208] | 80.2
CCn1c(Oc2ccc(F)cc2)nnc1[C@@H](C)NS(=O)(=O)c1cccc(Cl)c1Cl [Compound 209] | 91.4
CCn1c(Oc2ccc(F)cc2)nnc1[C@@H](C)NS(=O)(=O)c1cc(C(F)(F)F)cc(C(F)(F)F)c1 [Compound 212] | 69.7
CCn1c(Oc2ccc(F)cc2)nnc1[C@@H](C)NS(=O)(=O)c1cc(Cl)cc(Cl)c1 [Compound 213] | 102
CCn1c(Oc2ccc(F)cc2)nnc1[C@@H](C)NS(=O)(=O)c1cccc(Cl)c1C [Compound 214] | 102
CCn1c(Oc2ccc(F)cc2)nnc1[C@@H](C)NS(=O)(=O)c1cccc(OC)c1 [Compound 215] | 91.4
CCn1c(Oc2ccc(F)cc2)nnc1[C@@H](C)NS(=O)(=O)c1cc(F)c(Br)cc1F [Compound 216] | 88.9
CCn1c(Oc2ccc(F)cc2)nnc1[C@@H](C)NS(=O)(=O)c1cc(Br)ccc1OC [Compound 218] | 74.7

— US8022091B2, “Triazole derivative” (Taisho Pharmaceutical Co., Ltd., priority 2006, dated 2011)
